From paper PMC9490236, “Accurate de novo design of membrane-traversing macrocycles” (Cell, 2022)
Like-named read-outs stand apart in the source and are kept apart here. Where a SMILES comes first, the peptide text is derived from it. [ ]: non-standard residue; d: D form. NMeF = CN[C@@H](Cc1ccccc1)C(=O)O; dNMeF = CN[C@H](Cc1ccccc1)C(=O)O; NMeL = CN[C@@H](CC(C)C)C(=O)O; dNMeL = CN[C@H](CC(C)C)C(=O)O; NMeV = CN[C@H](C(=O)O)C(C)C; NMeA = CN[C@@H](C)C(=O)O; dNMeA = CN[C@H](C)C(=O)O

What was measured:
[1] = Caco-2 permeability assay (apical to basolateral); format: in vitro ADME, human; set-up: Caco_R1 / Caco_R3: unit not given here
Protocol: (§1) Human colon adenocarcinoma-derived Caco-2 cell line was used as a model system to investigate the intestinal epithelial permeability of our designs. Caco-2 cells were propagated in T125 flasks (Corning, Merck) using Dulbecco’s modified Eagle medium supplemented with 10% (v/v) fetal bovine serum, 1% (v/v) nonessential amino acids, and 1% (v/v) penicillin-streptomycin (Gibco, Thermo Fisher Scientific) at 37°C in an atmosphere of 5% CO2. Cells were subcultured when they reached 80% confluence.
(§2) The permeability of designed peptides was evaluated using an accelerated 6-day Caco-2 permeability assay as described previously ([Sevin et al., 2013]). In brief, cells were seeded into the 12-well Transwell plates with 0.4 μm polyester membrane inserts (Corning, Merck) to give 4.0 × 10^5 cells/well. The complete assay medium contained Dulbecco’s modified Eagle medium supplemented with 10% (v/v) fetal bovine serum, 1% (v/v) nonessential amino acids, and 0.4 μg/mL puromycin. The medium in plates was renewed every second day. The inserts received 0.75 mL of assay medium in the upper compartment (apical chamber) and 1.5 mL in the bottom compartment (basolateral chamber) individually. After 6-day incubation or until the cells formed monolayers, the medium in the apical and basolateral chamber was replaced with peptide solutions at 50 μM or Hanks' Balanced Salt Solution (HBSS), separately. The plates were incubated for 90 min at 37°C on an orbital shaker (60 rpm). The peptide concentration of solutions in the apical and basolateral compartments was subsequently quantified using LC-MS (Qstar Elite, AB Sciex Australia) to evaluate the transmembrane flux of peptides in the apical-to-basolateral direction. Membrane integrity of the Caco-2 cell monolayer was validated using trans-epithelial electrical resistance (TEER) measurements before and after the assays. Atenolol and quinidine were included as negative and positive controls in all assays.

Caco-2 cells = test: Caco-2 permeability assay (apical to basolateral); format: in vitro ADME, human; set-up: Caco_R1 / Caco_R3: unit not given here
Protocol: as §1, §2

[2] = PAMPA
in vitro = conditions: PAMPA, PAMPA_Papp_Avg
[3] = Caco-2, average of 3 replicates, read-out: Caco_Papp_Average

SMILES	Papp A→B ([1]; Caco-2, Caco_Papp_Average)	Caco_R1 (Caco-2 cells; Caco-2)	Caco_R3 (Caco-2 cells; Caco-2)	PAMPA_R1 [2]	PAMPA_R3 [2]	Papp (in vitro)	Papp A→B [1, 3]	Caco_R1 (Caco-2 cells; Caco-2 Papp, replicate 1)	Caco_R3 (Caco-2 cells; Caco-2 Papp, replicate 3)	PAMPA_Papp_Avg [2]	Papp at 90 min, 50 µM ([1]; human, Caco-2)
CC(C)C[C@@H]1NC(=O)[C@H](CC(C)C)N(C)C(=O)[C@H]2CCCN2C(=O)[C@@H](C)NC(=O)[C@@H](C)N(C)C(=O)[C@@H](C(C)C)NC(=O)[C@@H](CC(C)C)N(C)C(=O)[C@@H]2CCCN2C1=O [Design D8.30, DALA DPRO *LEU LEU PRO *DLEU DVAL *DALA] (cyclo(LP[dNMeL][dV][dNMeA][dA][dP][NMeL]))	3.97 ×10⁻⁶ cm/s	4.11	2.89	4.61E-06	4.25E-06	4.32 ×10⁻⁶ cm/s	–	–	–	–	–
CC[C@H](C)[C@@H]1NC(=O)[C@H](Cc2ccccc2)N(C)C(=O)[C@H](CC(C)C)N(C)C(=O)[C@@H](C(C)C)NC(=O)[C@@H](C)NC(=O)[C@@H]2CCCN2C(=O)[C@@H](CC(C)C)NC(=O)[C@@H]2CCCN2C(=O)[C@H](C)NC1=O (single isomer, unassigned) [Design D9.6.p1]	–	–	–	–	–	–	4.51 ×10⁻⁶ cm/s	4.759	4.47	–	–
CC(C)C[C@@H]1NC(=O)[C@@H]2CCCN2C(=O)[C@@H](Cc2ccccc2)NC(=O)[C@H](C)N(C)C(=O)[C@H](CC(C)C)NC(=O)[C@H](CC(C)C)N(C)C(=O)[C@@H](C)NC(=O)[C@@H](CC(C)C)NC(=O)[C@@H]2CCCN2C(=O)[C@@H](Cc2ccccc2)NC1=O (single isomer, unassigned) [Design D10.2.p1, LEU DPHE PRO DLEU DALA *LEU LEU *ALA DPHE PRO]	9.76 ×10⁻⁶ cm/s	8.83	11.73	4.51E-06	3.88E-06	–	–	–	–	3.92E-06	–
CC(C)C[C@@H]1NC(=O)[C@H](Cc2ccccc2)NC(=O)[C@@H](CC(C)C)NC(=O)[C@H]2CCCN2C(=O)[C@H](C(C)C)NC(=O)[C@@H](CC(C)C)NC(=O)[C@H]2CCCN2C(=O)[C@@H]2CCCN2C1=O [Design D8.5.p2, PHE LEU PRO DPRO DLEU VAL DPRO DLEU] (cyclo(FLP[dP][dL]V[dP][dL]))	21.4 ×10⁻⁶ cm/s	17.839	20.36	5.46E-06	5.67E-06	5.8 ×10⁻⁶ cm/s	–	–	–	–	–
CC(C)C[C@H]1C(=O)N2CCC[C@@H]2C(=O)N(C)[C@@H](C(C)C)C(=O)N[C@@H](C(C)C)C(=O)N2CCC[C@H]2C(=O)N2CCC[C@@H]2C(=O)N[C@@H](C)C(=O)N[C@H](C(C)C)C(=O)N(C)[C@@H](CC(C)C)C(=O)N[C@@H](C)C(=O)N1C [Design D10.5, PRO DPRO ALA DVAL *LEU ALA *LEU DPRO *VAL VAL] (cyclo(A[NMeL][dP][NMeV]VP[dP]A[dV][NMeL]))	–	–	–	–	–	–	0.497 ×10⁻⁶ cm/s	1.31	0.08	–	–
CC[C@H](C)[C@@H]1NC(=O)[C@@H](C(C)C)NC(=O)[C@@H]2CCCN2C(=O)[C@@H](CC(C)C)N(C)C(=O)[C@@H](C(C)C)NC(=O)[C@H](CC(C)C)N(C)C(=O)[C@H]2CCCN2C(=O)[C@@H](C)NC(=O)[C@H](Cc2ccccc2)N(C)C(=O)[C@H]2CCCN2C1=O (single isomer, unassigned) [Design D10.3.p1, ILE DPRO *PHE DALA DPRO *LEU DVAL *DLEU PRO DVAL]	3.15 ×10⁻⁶ cm/s	1.3	6.15	3.04E-06	1.85E-06	2.52 ×10⁻⁶ cm/s	–	–	–	–	–
CC[C@H](C)[C@@H]1NC(=O)[C@H]2CCCN2C(=O)[C@@H]2CCCN2C(=O)[C@@H](C(C)C)NC(=O)[C@@H](C)N(C)C(=O)[C@H](C)N(C)C(=O)[C@@H](CC(C)C)N(C)C(=O)[C@@H](C(C)C)NC1=O [Design D8.26, DVAL *DLEU *ALA *DALA DVAL PRO DPRO ILE] (cyclo(I[dV][dNMeL][NMeA][dNMeA][dV]P[dP]))	0.647 ×10⁻⁶ cm/s	0.79	0.94	1.58E-07	2.69E-07	0.255 ×10⁻⁶ cm/s	–	–	–	–	–
CC[C@@H](C)[C@H]1NC(=O)[C@H]2CCCN2C(=O)[C@@H]2CCCN2C(=O)[C@@H]([C@H](C)CC)NC(=O)[C@@H](Cc2ccccc2)NC(=O)[C@@H](Cc2ccccc2)N(C)C(=O)[C@@H]2CCCN2C(=O)[C@@H](C(C)C)NC1=O [Design D8.33, DPHE DILE PRO DPRO DILE DVAL PRO *DPHE] (cyclo(P[dNMeF][dF][dI]P[dP][dI][dV]))	19.1 ×10⁻⁶ cm/s	18.4	16.82	5.91E-06	1.01E-05	6.72 ×10⁻⁶ cm/s	–	–	–	–	> 10 ×10⁻⁶ cm/s
CC[C@H](C)[C@@H]1NC(=O)[C@@H](C(C)C)NC(=O)[C@@H]2CCCN2C(=O)[C@@H](CC(C)C)N(C)C(=O)[C@@H](C(C)C)NC(=O)[C@H](CC(C)C)N(C)C(=O)[C@H]2CCCN2C(=O)[C@@H](C)NC(=O)[C@H](Cc2ccccc2)N(C)C(=O)[C@H]2CCCN2C1=O (single isomer, unassigned) [Design D10.3.p2, ILE DPRO *PHE DALA DPRO *LEU DVAL *DLEU PRO DVAL]	–	–	–	–	–	–	4.43 ×10⁻⁶ cm/s	4.05	2.63	–	–
CC(C)C[C@@H]1C(=O)N(C)[C@@H](CC(C)C)C(=O)N2CCC[C@@H]2C(=O)N[C@H](CC(C)C)C(=O)N[C@H](C)C(=O)N2CCC[C@@H]2C(=O)N2CCC[C@H]2C(=O)N[C@@H](C)C(=O)N[C@H](Cc2ccccc2)C(=O)N[C@H](CC(C)C)C(=O)N[C@@H](C(C)C)C(=O)N1C (single isomer, unassigned) [Design D11.9.p2, VAL *DLEU *LEU DPRO DLEU DALA DPRO PRO ALA DPHE DLEU]	4.03 ×10⁻⁶ cm/s	2.62	4.02	BQL	BQL	–	–	–	–	BQL	–
CC[C@H](C)[C@@H]1NC(=O)[C@@H](CC(C)C)NC(=O)[C@H](CC(C)C)N(C)C(=O)[C@H](Cc2ccccc2)NC(=O)CN(C)C(=O)[C@@H]2CCCN2C(=O)[C@H](C(C)C)NC(=O)[C@H](Cc2ccccc2)N(C)C(=O)[C@H]2CCCN2C(=O)[C@H](CC(C)C)NC1=O (single isomer, unassigned) [Design D10.1.p2, DLEU ILE LEU DPRO *PHE VAL PRO *GLY PHE *LEU]	–	–	–	–	–	–	3.6 ×10⁻⁶ cm/s	2.58	4.01	–	–
CC[C@@H](C)[C@H]1NC(=O)[C@@H](CC(C)C)NC(=O)[C@@H](CC(C)C)N(C)C(=O)[C@@H]2CCCN2C(=O)[C@@H](C(C)C)NC(=O)[C@@H](CC(C)C)NC(=O)[C@@H](CC(C)C)N(C)C(=O)[C@@H]2CCCN2C1=O [Design D8.3.p2, DLEU DVAL PRO *DLEU DLEU DILE PRO *DLEU] (cyclo(P[dNMeL][dL][dI]P[dNMeL][dL][dV]))	2.73 ×10⁻⁶ cm/s	4.06	1.54	BQL	BQL	–	–	–	–	BQL	–
CC(C)C[C@@H]1NC(=O)[C@@H](C(C)C)NC(=O)[C@H](Cc2ccccc2)N(C)C(=O)[C@H]2CCCN2C(=O)[C@H]2CCCN2C(=O)[C@@H](C)NC(=O)[C@H](Cc2ccccc2)N(C)C(=O)[C@H]2CCCN2C(=O)[C@@H](C(C)C)NC(=O)[C@@H]2CCCN2C1=O [Design D10.4, *PHE DVAL LEU PRO DVAL DPRO *PHE DALA DPRO DPRO] (cyclo(LP[dV][dP][NMeF][dA][dP][dP][NMeF][dV]))	–	–	–	–	–	–	0.627 ×10⁻⁶ cm/s	1.39	0.49	–	–
CC[C@@H](C)[C@H]1NC(=O)[C@H](CC(C)C)NC(=O)[C@@H](CC(C)C)NC(=O)[C@H](C(C)C)NC(=O)[C@@H](Cc2ccccc2)N(C)C(=O)[C@@H]2CCCN2C(=O)[C@@H](CC(C)C)NC(=O)[C@H](CC(C)C)NC(=O)[C@H]2CCCN2C1=O (single isomer, unassigned) [Design D9.4.p1, LEU DILE DPRO LEU DLEU PRO *DPHE VAL DLEU]	–	–	–	–	–	–	3.76 ×10⁻⁶ cm/s	3.39	6	–	–
